# Measurements: patent US20250288599A1, “PHARMACEUTICAL COMPOSITIONS AND METHODS FOR TREATING OSTEOARTHRITIS” (INSIGNIA PHARMACEUTICALS, LLC, priority 2024, published 2025)
# Tests used:
# [1] = system: MMP3 expression in normal human dermal fibroblasts (NHDF); assay: MMP3 mRNA in NHDF activated with IL-1β, 24 h, qRT-PCR; type: cell-based; conditions: IL-1β 0.1 ng/ml, 100 mM Lac or 0.1 mM Dxp, IL-1β alone 3.5±1.7
# Procedure: (§1) After 24 hours, total mRNA was isolated and delta-delta Cp relative expression was calculated versus untreated medium controls, normalized to the housekeeping gene, GAPDH. Statistical analysis was then conducted via t-test.
# [2] = system: SOX9 expression in dedifferentiated osteoarthritic chondrocytes; assay: SOX9 relative expression in dedifferentiated osteoarthritic chondrocytes treated 14 days with Lac; type: cell-based, human
# From the text: Lac is commonly thought to be simply an end-product of anaerobic glycolysis; however, it may also have immunomodulatory effects and promote protein modifications that alter gene expression. The goal of this experiment was to determine how Lac supplementation affects early-phase, inflammatory, and late-stage redifferentiation in chondrocyte models. To establish how Lac may influence inflammation early in osteoarthritis, monolayers of normal human chondrocytes were exposed to Lac dose responses of up to 100 millimolar, concurrently with 0.5 nanograms per milliliter IL-1β for 48 hours. The release of PGE2 was then quantified using competitive EIA. To investigate how Lac affects transcriptional programs in dedifferentiated osteoarthritic chondrocytes, monolayer cultures and micromass pellets were treated for 14 days with 100 millimolar final concentrations of Lac, with and without 10 nanograms per milliliter transforming growth factor beta 3 (TGF-β3). Total RNA was then isolated, and relative expression of SOX9 or Col2a1 was calculated using qRT-PCR, normalized to GAPDH. […] Lac may also have beneficial effects on osteoarthritic chondrocytes; 100 millimolar final Lac concentrations increased the relative expression of SOX9 and Col2a1 by 8-fold and 1600-fold, respectively, in monolayer cultures. […]
# [3] = system: Col2a1 expression in human osteoarthritic chondrocytes; assay: Col2a1 relative expression in human osteoarthritic chondrocytes (passage 5) cultured 27 days; type: cell-based; conditions: 50 micromolar Dec, 0.1 μM Dxp, 100 mM Lac
# Procedure: To evaluate the biological ramifications of the SOX9 to RUNX2 regulation mentioned above, delta-delta relative gene expression was assessed against medium controls, with normalization to GAPDH for both Col2a1 and Col1a1 in the samples tested with reference to Example 15. […] Moreover, treatment with 100 mM Lac increased collagen expression (49.88±4.31 and 1.63±0.20 for Col2a1 and Col1a1, respectively; FIGS. 51 and 52).
# [4] = system: SOX9 expression in dedifferentiated osteoarthritic chondrocytes; assay: SOX9 relative expression in high passage osteoarthritic chondrocyte monolayer model with TGF-β; type: cell-based, human; conditions: 14 days in culture with TGF-β; 28 mM Lac, 100 mm LA
# Procedure: (§2) These compounds were tested in a high passage osteoarthritic chondrocyte monolayer model, alone or in combination with other agents, for both transcriptional regulation of standard markers and IL-1β-induced PGE2 production.
# [5] = system: SOX9 expression in human osteoarthritic chondrocytes; assay: SOX9 relative expression in high and low passage osteoarthritic chondrocytes, 7, 14 or 28 days; type: cell-based
# From the text: Media was exchanged bi-weekly. […] SOX9 is a transcription factor vital to the development and maintenance of cartilage and is required for chondrogenesis. SOX9 promotes chondrocyte survival and transcriptionally activates cartilage-specific genes. SOX9 is repressed in hypertrophic chondrocytes (i.e. terminally differentiated osteoblast-like cells).
# [6] = system: Elastin (ELN) expression in normal human dermal fibroblasts (NHDF); assay: ELN mRNA in NHDF activated with TGF-β1 or IL-1β, 24 h, qRT-PCR; type: cell-based; conditions: 100 mM Lac or 0.1 mM Dxp
# Procedure: as §1
# [7] = system: Col2a1 expression in dedifferentiated osteoarthritic chondrocytes; assay: Col2a1 relative expression in high passage osteoarthritic chondrocyte monolayer model with TGF-β; type: cell-based, human; conditions: 14 days in culture with TGF-β; 28 mM Lac, 100 mm LA
# Procedure: as §2
# [8] = system: Col2a1 expression in dedifferentiated osteoarthritic chondrocytes; assay: Col2a1 relative expression in dedifferentiated osteoarthritic chondrocytes treated 14 days with Lac; type: cell-based, human
# From the text: Lac is commonly thought to be simply an end-product of anaerobic glycolysis; however, it may also have immunomodulatory effects and promote protein modifications that alter gene expression. The goal of this experiment was to determine how Lac supplementation affects early-phase, inflammatory, and late-stage redifferentiation in chondrocyte models. To establish how Lac may influence inflammation early in osteoarthritis, monolayers of normal human chondrocytes were exposed to Lac dose responses of up to 100 millimolar, concurrently with 0.5 nanograms per milliliter IL-1β for 48 hours. The release of PGE2 was then quantified using competitive EIA. To investigate how Lac affects transcriptional programs in dedifferentiated osteoarthritic chondrocytes, monolayer cultures and micromass pellets were treated for 14 days with 100 millimolar final concentrations of Lac, with and without 10 nanograms per milliliter transforming growth factor beta 3 (TGF-β3). Total RNA was then isolated, and relative expression of SOX9 or Col2a1 was calculated using qRT-PCR, normalized to GAPDH. […] Lac may also have beneficial effects on osteoarthritic chondrocytes; 100 millimolar final Lac concentrations increased the relative expression of SOX9 and Col2a1 by 8-fold and 1600-fold, respectively, in monolayer cultures. […] Furthermore, adding Lac with TGF-β3 to micromass cultures increased SOX9 and Col2a1 by 9-fold and 88-fold, respectively.
# [9] = system: PGE2 release from normal human chondrocytes; assay: IL-1β-induced PGE2 release from normal human chondrocyte monolayers, 48 h, competitive EIA; type: cell-based
# Procedure: Mechanical stress and inflammation are thought to sustain catabolic cycles of extracellular matrix deterioration during osteoarthritis. In particular, PGE2 correlates with increased protease production and discomfort or pain in osteoarthritis.
# After 48-hours, PGE2 release was evaluated by competitive EIA, and relative potency was calculated versus dose responses of Dex alone.
# After 48 hours, PGE2 release was evaluated by competitive enzyme immunoassay (EIA), and relative potency was calculated versus Dex alone.
# Lac is commonly thought to be simply an end-product of anaerobic glycolysis; however, it may also have immunomodulatory effects and promote protein modifications that alter gene expression. The goal of this experiment was to determine how Lac supplementation affects early-phase, inflammatory, and late-stage redifferentiation in chondrocyte models. To establish how Lac may influence inflammation early in osteoarthritis, monolayers of normal human chondrocytes were exposed to Lac dose responses of up to 100 millimolar, concurrently with 0.5 nanograms per milliliter IL-1β for 48 hours. The release of PGE2 was then quantified using competitive EIA. To investigate how Lac affects transcriptional programs in dedifferentiated osteoarthritic chondrocytes, monolayer cultures and micromass pellets were treated for 14 days with 100 millimolar final concentrations of Lac, with and without 10 nanograms per milliliter transforming growth factor beta 3 (TGF-β3). Total RNA was then isolated, and relative expression of SOX9 or Col2a1 was calculated using qRT-PCR, normalized to GAPDH.
# [10] = system: RUNX2 expression in human osteoarthritic chondrocytes; assay: RUNX2 relative expression in low passage osteoarthritic chondrocytes, 7, 14 or 28 days; type: cell-based; conditions: 7, 14, 28 days
# Procedure: Media was exchanged bi-weekly. Chondrocytes cultured for 7 days, 14 days, or 28 days were analyzed to assess SOX9 and RUNX2 expression. SOX9 is a transcription factor vital to the development and maintenance of cartilage and is required for chondrogenesis. SOX9 promotes chondrocyte survival and transcriptionally activates cartilage-specific genes. SOX9 is repressed in hypertrophic chondrocytes (i.e. terminally differentiated osteoblast-like cells).
# The RUNX2 expression is provided at 7, 14, and 28 days of culturing.
# [11] = system: MMP12 expression in normal human dermal fibroblasts (NHDF); assay: MMP12 mRNA in NHDF activated with IL-1β, 24 h, qRT-PCR; type: cell-based; conditions: IL-1β 0.1 ng/ml, 100 mM Lac or 0.1 mM Dxp, IL-1β alone 17.8±12.3
# Procedure: as §1
# [12] = 100 millimolar Lac with TGF-β3, 14 days, micromass cultures
# [13] = 100 millimolar Lac, 14 days, monolayer cultures
# [14] = low passage osteoarthritic chondrocytes, 7, 14, 28 days
structure (smiles),measurement,setting,value
"CC(O)C(=O)O (stereo not drawn) [Lac, lactate]",relative expression of MMP3,[1],1.5±0.8
same,increase in SOX9,[2]; [12],9 fold
same,increase in relative expression of SOX9,[2]; [13],8 fold
same,Col2a1 delta-delta relative gene expression,[3],49.88±4.31 fold
same,increase in SOX9 transcription,[4],2 fold
same,SOX9 expression,"[5]; high passage, dedifferentiated osteoarthritic chondrocytes with TGF-β3, 14 days",increased SOX9 transcription
same,SOX9 expression,[5]; [14],temporal increase in SOX9
same,ratio of SOX9/RUNX2,[5]; [14],temporally increased
same,relative expression of ELN,"[6]; IL-1β 0.1 ng/ml, IL-1β alone 18±12, n=3",0.86±3
same,relative expression of ELN,"[6]; TGF-β1 10 ng/ml, TGF-β1 alone 110±35, n=3",45+36
same,increase in Col2a1 compared to controls,[7],30 fold
same,increase in Col2a1,[8]; [12],88 fold
same,increase in collagen,"[8]; 100 millimolar Lac, 14 days, micromass pellets",11 fold
same,increase in relative expression of Col2a1,[8]; [13],1600 fold
same,concentration with statistically significant effect on PGE2 release,[9]; IL-1β 48 h,≥ 10 millimolar
same,inhibition of PGE2 release,"[9]; Lac 100 millimolar, 0.5 ng/mL IL-1β, 48 h",complete inhibition
same,RUNX2 expression,[10],temporal decrease in RUNX2
same,relative expression of MMP12,[11],2.2±0.8
